The values that follow come from patent US20180118707A1, “BETA-NAPHTHOISOFLAVONES, COMPOSITIONS CONTAINING, AND USES OF, SAME” (Thesan Pharmaceuticals, Inc., priority 2015, published 2018).

The target of series [1] is T1, Aryl Hydrocarbon Receptor (Homo sapiens, UniProt P35869).
T1 construct: endogenous in cells; host or cells: Normal human keratinocytes (NHK) transduced with the lentivector plox-XRE TATA-Luc (reporter only)
T1 sequence (P35869 11-848): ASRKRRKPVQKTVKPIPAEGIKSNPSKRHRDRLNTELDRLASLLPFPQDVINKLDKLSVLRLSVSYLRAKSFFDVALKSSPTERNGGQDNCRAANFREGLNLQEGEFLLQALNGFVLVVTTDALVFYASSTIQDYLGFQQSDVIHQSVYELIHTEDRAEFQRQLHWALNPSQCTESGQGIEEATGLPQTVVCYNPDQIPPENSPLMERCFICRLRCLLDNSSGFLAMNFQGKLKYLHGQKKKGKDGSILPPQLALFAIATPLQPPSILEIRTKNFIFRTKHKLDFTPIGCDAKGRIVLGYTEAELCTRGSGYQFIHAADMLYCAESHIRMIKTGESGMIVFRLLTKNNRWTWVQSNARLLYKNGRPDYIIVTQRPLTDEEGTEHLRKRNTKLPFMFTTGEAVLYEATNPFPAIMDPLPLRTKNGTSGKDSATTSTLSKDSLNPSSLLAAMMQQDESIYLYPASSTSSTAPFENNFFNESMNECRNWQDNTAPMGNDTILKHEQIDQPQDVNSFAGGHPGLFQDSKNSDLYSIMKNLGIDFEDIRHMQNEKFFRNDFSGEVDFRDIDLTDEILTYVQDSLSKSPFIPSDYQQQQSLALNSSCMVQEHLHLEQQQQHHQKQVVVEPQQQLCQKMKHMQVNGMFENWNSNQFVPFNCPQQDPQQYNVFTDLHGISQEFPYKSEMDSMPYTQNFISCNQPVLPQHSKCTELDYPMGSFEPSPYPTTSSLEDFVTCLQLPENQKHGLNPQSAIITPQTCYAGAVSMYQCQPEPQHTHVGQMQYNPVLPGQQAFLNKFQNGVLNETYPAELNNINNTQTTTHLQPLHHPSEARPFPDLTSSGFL
Nature of the series: AhR activation luciferase reporter in NHK-plox-XRE TATA-Luc cells. The note with it: treatment for 24 h with 1-10 uM. The format is cell-based. The procedure: AhR activation is also measured in human skin cells such as normal human keratinocytes (NHK cells) or A431 epidermoid cells stably transfected with the lentivector plox-XRE TATA-Luc. The NHK cells are cultured in a specific keratinocyte SFM medium (Glbco)+penicillin+streptomycin. At D0, the NHK cells are seeded Into 6-well plates in a proportion of approximately 15,000 cells/cm^2. After 24 h, the medium is replaced with fresh medium and the cells are transduced with the lentivector plox-XRE TATA-Luc. After 48 h, the cells are subcultured and maintained in culture, and tested for their reactivity to 3-phenyl-1H-benzo[f]chromen-1-one. The tests are carried out using the luciferase reporter assay system kit from Promega. At D0, the cells are seeded at a density of approximately 60% confluence, and then treated, at D1, with the test substance diluted to various concentrations in the appropriate culture medium. At D2, the cells are lysed in CLB buffer, and the lysate is clarified by centrifugation for 5 min at 10 000 g. The luciferase activity is measured in 20 microliters of lysate as recommended by the supplier, using the luminoskan luminometer (Thermo). […] Data is processed and ECso's can be calculated from standard data monitoring software.

A further series has as its system CYP1A1 mRNA. Nature of the series: Induction of CYP1A1 mRNA in HepG2 cells (RT-PCR). The format is cell-based, human. The note with it: 24 h incubation, 10 uM, normalized to 18S rRNA. Here is the method:
HepG2 cells (American Type Culture Collection (ATCC), Manassas, Va.) were cultured using Eagle's minimal essential medium (ATCC), supplemented with 10% fetal calf serum (Invitrogen Life Technologies). The cells were cultured continuously until used in experiments (similar to Examples 2 and 3). Celts were plated at a seeding density of 3.8×10^5 cells per well on 6-well plates (Corning Costar, N.Y., U.S.A.). Cells were allowed to attach for 24 h in a 37° C. humidified incubator with a 5% CO2 atmosphere. Media was replaced with that containing test agents or vehicle (0.1% dimethylsuiphoxide) and cells incubated for a further 24 h. Following the 24 h incubation with test agents, media was removed and RNA prepared using the Purelink RNA mini kit (ThermoFischer, Carlsbad, Calif.). Nucleic acid concentration was determined using a Nanodrop™ spectrophotometer (ThermoScientific) by measuring the OD at 260 nm and RNA purity was evaluated using the OD 260/280 nm ratio, 1 μg RNA was reverse transcribed using SuperScript®VILO™ (ThermoFischer) with cDNA synthesis performed using the following parameters: 10min at 25° C., 2 h at 42° C., 5min at 85° C. (deactivation) followed by a completion temperature de C. […] Results were analyzed by calculating the fold change of CYP1A1 mRNA levels normalized to 18S rRNA (ΔΔCt) in compound treated cells or tissues compared to vehicle levels.

For the next series, the system named is HepG2 cells. The experiment in a line: MTT cytotoxicity assay in HepG2 cells after EROD. It counts as cell-based, human. The procedure: The formation of resorufin is quantified by fluorometry with a fluorescence plate reader. Fluorescence is determined at λex 570 nm and λem 590 nm. The amount of resorufin is calculated from a standard curve generated using 0 to 1 μM resorufin in water at ½ log dilutions. The remaining (i.e. all cells present at the beginning of analysis, since only supernatant is taken to assay EROD) live cells are subsequently utilized for the MIT cytotoxicity assay. MTT is made up in serum-free medium at 5 mg/ml. then added to the cells giving a final concentration of 10% (0.5 mg/ml MTT final) then incubated for 2 h. The medium is carefully removed, then MTT formazan is solubilized by adding 200 μl of DMSO and subsequently mixed on a plate shaker. The absorbance is measured spectra photometrically at 550 nm and background absorbance at 690 nm is subtracted.

`O=c1cc(-c2ccccc2)oc2ccc3ccccc3c12` [D, 3-Phenyl-1H-benzo[f]chromen-1-one, reference compound]: the “induction of luciferase activity” value in series [1] is “significant induction”. Further, the “CYP1A1 mRNA fold change from vehicle” value in the series with CYP1A1 mRNA is 596 fold. This molecule also returned a Toxicity threshold in the series with HepG2 cells above 50 µM.
